In PMC10959927, “Platinum iodido drugs show potential anti-tumor activity, affecting cancer cell metabolism and inducing ROS and senescence in gastrointestinal cancer cells” (Communications Biology, 2024):
Where “and” joins values, the source holds several entries; their conditions need not be identical. Equal values may be shown once.

Key:
Assay type in all cases: cell-based, human
PANC1 cells [1] = assay: Western blotting (p-p53, p-JNK, p-p38, p-ERK, p-CHK1/2, Mcl1, BID, BAX); conditions: for fold change BAX vs Tubulin / fold change MCL1 vs Tubulin: Fig. S3B; for fold change p-ERK vs Tubulin / fold change p-JNK vs Tubulin / fold change p-p38 vs Tubulin / fold change p-p53 vs Tubulin: PANC1, Fig. 4A, replicate values
Method: (§1) Total protein extracts were obtained by adding the lysis buffer: 25 mM HEPES pH 7.5, 0.3 M NaCl, 1.5 mM MgCl2, 0.2 mM EDTA, 0.5 mM DTT, 20 mM β-glicerophosphate, 0.1 mM Na3VO4, 0.1% triton X-100; in the presence of protease inhibitors. Twenty μg of protein per sample were loaded and resolved using 8%, 10% or 15% SDS-PAGE polyacrylamide gels, and then transferred onto PVDF membranes, followed by immunodetection using appropriate antibodies, purchased from Santa Cruz Technology: Mcl-1 (sc-819), Cell Signaling Technology: BIM, BID, BAX (#9942), p-p38 (1:2000, #4631), p-p53^ser15 (#9284), p-ERK1/2 (1:2000, #9106), p-CHK1^ser345 and p-CHK2^ser19 (#9931), Promega Corporation-Spain: p-JNK (#V7932), or Sigma-Aldrich: α-tubulin (1:10000, #TP026). Unless indicated, all antibodies were diluted 1:1000. Secondary antibodies conjugated with horseradish peroxidase were purchased from BioRad, and chemiluminescence detection was performed using ECL (Santa Cruz Biotechnology).

AGS cells [2] = assay: as above; conditions: for fold change p-ERK vs Tubulin / fold change p-JNK vs Tubulin / fold change p-p38 vs Tubulin / fold change p-p53 vs Tubulin: Fig. 4A, replicate values; for fold change BAX vs Tubulin / fold change BID full length vs Tubulin / fold change MCL1 vs Tubulin: Fig. S3B
Method: as §1

MKN45 cells [3] = assay: SA-β-Gal activity, CellEvent Senescence Green flow cytometry;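 note: IC50 concentration of each compound relative to untreated control set as 1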; conditions: Fig. 3A, replicate values
Method: SA-β-Gal activity was measured following two different approaches. (i) AGS, MKN45 and PANC1 cells (5 × 10^4) were seeded in 24-multiwell dishes and incubated overnight. […] For flow cytometry cell senescence detection, cells were tripsinized, fixed for 15 min with PFA 4% and stained with the CellEvent Senescense Green Flow Cytometry Assay Kit (C10840, Invitrogen) according to manufacturer’s instructions. CellEvent Senescense Green Probe was used at a 1:500 dilution and fluorescence was detected using the filter (Ex488nm/Em530/30) BL1 with a 4-laser Attune NxT Acoustic Cytometer (Thermo Fisher Scientific). […] After 3 h, the treatments were removed, new supplemented medium was added, and cells were incubated for an additional 24 h. Finally, SA-β-Gal staining was performed using the Senescence Cells Histochemical Staining Kit (CS0030-1KT) according to the manufacturer’s instructions.

PANC1 cells [4] = assay: Ratio GSH/GSSG, colorimetric kit
Outline: (§2)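 AGS and PANC1 cells were exposed to compounds for 3 and 24 h, with H2O2 as positive control. GSSG was measured separately after 2-vinylpyridine treatment to give the GSH/GSSG ratio.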

AGS cells [5] = assay: Ratio GSH/GSSG, colorimetric kit
Outline: as §2

PANC1 cells [6] = assay: Flow cytometry mitochondrial mass and membrane potential (MitoTracker Green / CMXRos)
Method: (§3) We used flow cytometry to study the mitochondrial mass, mitochondrial membrane potential (ΔΨm) and cellular senescence of untreated and treated cells. Cells (5 × 10^4) were seeded in 24-multiwell dishes and cultured overnight. […] Cells were tripsinized, stained with Mitoprobes and resuspended in Flow buffer [1X PBS; 3% Fetal Bovine Serum (v/v); 3 mM EDTA (v/v)] before analysis with a 4-laser Attune NxT Acoustic Cytometer (Thermo Fisher Scientific). For Mitoprobe assays, […] DAPI (Sigma) was used to exclude dead cells. Data were analyzed with FlowJo 9.3 software (Tree Star Inc., Ashland, OR). For mitochondrial mass and ΔΨm measurement, Mitotracker Green (MTGreen, M7514, Invitrogen) and Mitotracker Red CMXRos (CMXROS, M7512, Invitrogen) were used, respectively. Probes were incubated with cells for 30 min at 37 °C at a concentration of 100 nM (MTGreen) and 20 nM (CMXROS), and fluorescence was detected using the filters (Ex488nm/Em530/30) BL1 and (Ex561nm/Em585/16) YL1, respectively. To determine mitochondria functionality, the ratio between ΔΨm (MitoTracker Red CMXRos) versus Mit. Mass (MitoTracker Green) was calculated. The gating strategy used in all the Flow Cytometry experiments is reflected in Fig.S10.

MKN45 cells [7] = assay: as above
Method: as §3

AGS cells [8] = assay: as above; conditions: fold change vs C, replicates
Method: as §3

[9] = PANC1, fold change vs C, replicates
[10] = MKN45, fold change vs C, replicates

SMILES: CC(C)[NH][Pt@SP1]([I])([I])[NH]C(C)C [I6, cis-[PtI2(isopropylamine)2]]
- activation of p53 (p-p53 western blot) (PANC1 cells [1]; PANC1, IC50, 1, 3, 6 and 24 h): did not activate p53
- phosphorylation of CHK1/2 (DDR pathway, western blot) (PANC1 cells [1]; PANC1, IC50, 1, 3, 6 or 24 h): did not activate
- fold change BAX vs Tubulin (PANC1 cells [1]; PANC1, time 1 h): 1.132 fold change and 1.289 fold change and 1.219 fold change
- fold change MCL1 vs Tubulin (PANC1 cells [1]; PANC1, time 1 h): 0.6156 fold change and 0.9493 fold change and 1.031 fold change
- fold change BAX vs Tubulin (PANC1 cells [1]; PANC1, time 3 h): 1.6811 fold change and 1.471 fold change and 1.573 fold change
- fold change BAX vs Tubulin (PANC1 cells [1]; PANC1, time 6 h): 1.615 fold change and 2.78 fold change and 2.056 fold change
- fold change MCL1 vs Tubulin (PANC1 cells [1]; PANC1, time 6 h): 1.135 fold change and 2.241 fold change and 1.84 fold change
- fold change BAX vs Tubulin (PANC1 cells [1]; PANC1, time 24 h): 2.639 fold change and 1.942 fold change and 1.489 fold change
- fold change p-ERK vs Tubulin (PANC1 cells [1]; Time 1 h): 1.209 fold change and 3.621 fold change and 2.27 fold change
- fold change p-JNK vs Tubulin (PANC1 cells [1]; Time 1 h): 1.809 fold change and 1.288 fold change and 3.68 fold change
- fold change p-p38 vs Tubulin (PANC1 cells [1]; Time 1 h): 2.603 fold change and 1.024 fold change and 1.89 fold change
- fold change p-p53 vs Tubulin (PANC1 cells [1]; Time 1 h): 0.76 fold change and 1.24 fold change and 0.65 fold change
- fold change p-ERK vs Tubulin (PANC1 cells [1]; Time 3 h): 0.5754 fold change and 1.698 fold change and 1.17 fold change
- fold change p-JNK vs Tubulin (PANC1 cells [1]; Time 3 h): 0.5257 fold change and 0.2509 fold change and 3.356 fold change
- fold change p-p38 vs Tubulin (PANC1 cells [1]; Time 3 h): 1.159 fold change and 1.033 fold change and 1.07 fold change
- fold change p-p53 vs Tubulin (PANC1 cells [1]; Time 3 h): 0.78 fold change and 1.36 fold change and 1.16 fold change
- fold change p-ERK vs Tubulin (PANC1 cells [1]; Time 6 h): 0.6008 fold change and 2.546 fold change and 1.66 fold change
- fold change p-JNK vs Tubulin (PANC1 cells [1]; Time 6 h): 0.6321 fold change and 0.3554 fold change and 4.716 fold change
- fold change p-p38 vs Tubulin (PANC1 cells [1]; Time 6 h): 0.976 fold change and 1.156 fold change and 1.0897 fold change
- fold change p-p53 vs Tubulin (PANC1 cells [1]; Time 6 h): 1.01 fold change and 0.69 fold change and 0.99 fold change
- fold change p-ERK vs Tubulin (PANC1 cells [1]; Time 24 h): 0.4409 fold change and 1.892 fold change and 1.09 fold change
- fold change p-JNK vs Tubulin (PANC1 cells [1]; Time 24 h): 0.5968 fold change and 0.8335 fold change and 2.596 fold change
- fold change p-p38 vs Tubulin (PANC1 cells [1]; Time 24 h): 1.91 fold change and 1.31 fold change and 1.357 fold change
- fold change p-p53 vs Tubulin (PANC1 cells [1]; Time 24 h): 2.28 fold change and 1.99 fold change and 1.04 fold change
- activation of p53 (p-p53 western blot) (AGS cells [2]; IC50, 1, 3, 6 and 24 h): did not activate p53
- phosphorylation of CHK1/2 (DDR pathway, western blot) (AGS cells [2]; IC50, 1, 3, 6 or 24 h): did not activate
- fold change p-ERK vs Tubulin (AGS cells [2]; Time 1 h): 2.604 fold change and 2.955 fold change and 1.91 fold change
- fold change p-JNK vs Tubulin (AGS cells [2]; Time 1 h): 1.478 fold change and 1.305 fold change and 1.607 fold change
- fold change p-p38 vs Tubulin (AGS cells [2]; Time 1 h): 1.462 fold change and 1.894 fold change and 2.196 fold change
- fold change p-p53 vs Tubulin (AGS cells [2]; Time 1 h): 0.562 fold change and 0.6997 fold change and 1.25 fold change
- fold change p-ERK vs Tubulin (AGS cells [2]; Time 3 h): 1.3326 fold change and 1.834 fold change and 1.749 fold change
- fold change p-JNK vs Tubulin (AGS cells [2]; Time 3 h): 0.8249 fold change and 0.7387 fold change and 1.623 fold change
- fold change p-p38 vs Tubulin (AGS cells [2]; Time 3 h): 1.1118 fold change and 2.258 fold change and 0.7258 fold change
- fold change p-p53 vs Tubulin (AGS cells [2]; Time 3 h): 0.3925 fold change and 0.7056 fold change and 1.358 fold change
- fold change p-ERK vs Tubulin (AGS cells [2]; Time 6 h): 1.495 fold change and 1.997 fold change and 1.556 fold change
- fold change p-JNK vs Tubulin (AGS cells [2]; Time 6 h): 0.7672 fold change and 1.335 fold change and 1.232 fold change
- fold change p-p38 vs Tubulin (AGS cells [2]; Time 6 h): 1.675 fold change and 3.507 fold change and 1.086 fold change
- fold change p-p53 vs Tubulin (AGS cells [2]; Time 6 h): 0.5607 fold change and 0.7436 fold change and 1.621 fold change
- fold change p-ERK vs Tubulin (AGS cells [2]; Time 24 h): 0.7805 fold change and 2.6246 fold change and 1.218 fold change
- fold change p-JNK vs Tubulin (AGS cells [2]; Time 24 h): 0.8639 fold change and 0.8519 fold change and 1.138 fold change
- fold change p-p38 vs Tubulin (AGS cells [2]; Time 24 h): 2.641 fold change and 0.9281 fold change and 1.316 fold change
- fold change p-p53 vs Tubulin (AGS cells [2]; Time 24 h): 0.6954 fold change and 1.1071 fold change and 1.226 fold change
- fold change BAX vs Tubulin (AGS cells [2]; time 1 h): 1.29 fold change and 0.734 fold change and 1.017 fold change
- fold change BID full length vs Tubulin (AGS cells [2]; time 1 h): 0.722 fold change and 1.325 fold change and 0.67 fold change
- fold change MCL1 vs Tubulin (AGS cells [2]; time 1 h): 0.493 fold change and 0.586 fold change and 0.597 fold change
- fold change BAX vs Tubulin (AGS cells [2]; time 3 h): 0.759 fold change and 1.497 fold change and 1.286 fold change
- fold change BID full length vs Tubulin (AGS cells [2]; time 3 h): 1.126 fold change and 1.525 fold change and 0.803 fold change
- fold change MCL1 vs Tubulin (AGS cells [2]; time 3 h): 0.592 fold change and 1.105 fold change and 0.81 fold change
- fold change BAX vs Tubulin (AGS cells [2]; time 6 h): 1.353 fold change and 1.942 fold change and 1.061 fold change
- fold change MCL1 vs Tubulin (AGS cells [2]; time 6 h): 0.911 fold change and 1.666 fold change and 1.549 fold change
- fold change BID full length vs Tubulin (AGS cells [2]; time 24 h): 1.406 fold change and 1.917 fold change and 1.97 fold change
- Fold change % Senescence (MKN45 cells [3]): 5.26 fold change and 5.34 fold change and 6.2 fold change
- GSH/GSSG (PANC1 cells [4]; PANC1, 3, relative to Control = 1): 0.8833 and 0.8858 and 1.064
- GSH/GSSG (PANC1 cells [4]; PANC1, 24, relative to Control = 1): 0.52 and 0.6511 and 0.6572
- GSH/GSSG (AGS cells [5]; AGS, 3, relative to Control = 1): 0.7708 and 0.7765 and 0.8015
- GSH/GSSG (AGS cells [5]; AGS, 24, relative to Control = 1): 0.964 and 0.9646 and 1.003
- Fold change ΔΨm/MM (PANC1 cells [6]; PANC1, IC50 doses 24 h, CMX-ROS/MitoGreen ratio vs untreated 1.0): 0.61 and 0.39 and 0.44
- Fold change %CMXROS, ΔΨm (PANC1 cells [6]; [9]): 0.75 and 0.98 and 0.61
- Fold change %MTGreen, MM (PANC1 cells [6]; [9]): 1.22 and 2.53 and 2.1
- Fold change ΔΨm/MM (MKN45 cells [7]; MKN45, IC50 doses 24 h, CMX-ROS/MitoGreen ratio vs untreated 1.0): 0.26 and 0.21 and 0.27
- Fold change %CMXROS, ΔΨm (MKN45 cells [7]; [10]): 0.24 and 0.19 and 0.3
- Fold change %MTGreen, MM (MKN45 cells [7]; [10]): 0.93 and 0.91 and 1.1
- Fold change %CMXROS, ΔΨm (AGS cells [8]): 0.58 and 0.29 and 0.42
- Fold change %MTGreen, MM (AGS cells [8]): 0.83 and 0.75 and 1.298
